Test [1] relates to AXL. Put plainly: Ubiquitylation assay of AXL in Hela cells. The following applies: chloroquine 100 μM, MG132 20 μM, FIG. 3F. Format: cell-based. As to the method: (§1) 293T and Hela cells were transfected with plasmid expressing EGFR-GFP, HA-Ub and LZTR1-FLAG as indicated in figures and treated with MLN4924 (1 μM), chloroquine (CQ, 100 μM), MG132 (20 μM), or EGF (20 ng/ml or 100 ng/ml) and ubiquitylation assay was performed under denaturing condition. Cells were lysed in 1% SDS and boiled at 100° C. for 10 min. Lysates were diluted with tris buffered saline containing 1% N P40 and centrifuged 14000 r.p.m. for 15 min at 4° C. Immunoprecipitation was performed using 500 μg to 1 mg of cellular lysates using HA affinity gel (Sigma, E6779), AXL or EGFR antibodies at 4° C. overnight followed by protein G/A beads for 90 min at 4° C. […] Protein samples were separated by SDS-PAGE and transferred to PV DF membrane and analyzed by western blot.

For test [2], the system named is EGFR. Put plainly: LZTR1-mediated destabilization of EGFR in transfected HEK 293T cells (western blot). Format: cell-based. The following applies: HEK 293T cells with EGFR-GFP and LZTR1-FLAG; FIG. 3A, 3C. (In general: Immunoblotting shows a protein as a band on a membrane.)
Experimental: (§2) Cells were lysed in RIPA buffer (50 mM Tris-HCl, pH 7.5, 150 mM NaCl, 1 mM EDTA, 1% NP40, 0.5% sodium deoxycholate, 0.1% sodium dodecyl sulphate, 1.5 mM Na3VO4, 50 mM sodium fluoride, 10 mM sodium pyrophosphate, 10 mM β-glycerolphosphate and EDTA-free protease inhibitor cocktail (Roche)) or NP40 lysis buffer (50 mM Tris-HCl, pH 7.5, 150 mM NaCl, 1 mM EDTA, 1% NP40, 1.5 mM Na3VO4, 50 mM sodium fluoride, 10 mM sodium pyrophosphate, 10 mM β-glycerolphosphate and EDTA-free protease inhibitor cocktail (Roche)). Lysates were centrifuged 14,000 r.p.m. for 15 min at 4° C. and supernatant were collected. […] Beads were washed with lysis buffer four times and eluted in 2×SDS sample buffer. Immunoprecipitates or lysates were separated by SDS-PAGE and transferred to polyvinylidene difluoride or nitrocellulose membranes. Membranes were blocked in TBS-T (0.1% Tween20) with 5% non-fat milk or BSA and probed with primary antibodies.
In test [3] the test system is EGFR. The test is described as follows: Ubiquitylation assay of EGFR in HEK 293T cells. Format: cell-based. The settings on record: MLN4924 1 μM, FIG. 3E. As to the method:
as §1

Test [4] relates to AXL. Put plainly: LZTR1-mediated destabilization of AXL in transfected HEK 293T cells (western blot). The format is cell-based. The settings on record: HEK 293T cells with AXL-HA and LZTR1-FLAG; FIG. 3B, 3D.
Experimental: as §2
The next test concerns RIT1. Put plainly: LZTR1-mediated reduction of RIT1 in transfected HEK 293T cells (western blot). The format is cell-based. The following applies: HEK 293T cells with FLAG-RIT1 and LZTR1-FLAG; FIG. 10A, 10C.
Test [5] relates to schwannoma-like cells from Lztr1fl/fl;Cdkn2Afl/fl;GFAP-Cre+ mice (E0954). Put plainly: Clonogenic assay of schwannoma-like cells. The format is cell-based, mouse. The settings on record: single dose; 72 hr treatment; FIG. 15C-F. Here is the method: 500 cells were seeded in triplicate wells of 6-well plates. […] Cells were stained with crystal violet and colonies were counted.

The subject of test [6] is subcutaneous tumors of schwannoma-like cells from Lztr1fl/fl;Cdkn2Afl/fl;GFAP-Cre+ mice (E0954). Format: in vivo. The following applies: single RTK inhibitor; summary in the discussion. Here is the method:
Mice were weighted daily. Tumor diameters were measured every 2 days with caliper and tumor volumes estimated using the formula: width2×length/2=V (mm3). Mice were euthanized when the tumor size reached 2,000 mm3 or if the skin was ulcerated, according to IACUC recommendation. All experiments were performed according to the guidelines of the Institutional Animal Care and Use Committee at Columbia University.

Peptide text beside a SMILES is read from it. * marks the point of attachment. Cbz = O=C(OCc1ccccc1)*

Experimental for RIT1: as §2

For the molecule `CC(C)C[C@@H](C=O)NC(=O)[C@H](CC(C)C)NC(=O)[C@H](CC(C)C)NC(=O)OCc1ccccc1` [MG132] (Cbz-Leu-Leu-Leu-aldehyde), in the test on AXL [1], the “LZTR1-increased polyubiquitylated species of AXL” value is reported as “ineffective”.

With `NS(=O)(=O)OC[C@@H]1C[C@@H](n2ccc3c(N[C@H]4CCc5ccccc54)ncnc32)C[C@@H]1O` [MLN4924], the “LZTR1-mediated destabilization of EGFR” value in the test with EGFR [2] is on record as “rescued”. For the same molecule, the “LZTR1-increased formation of high molecular weight polyubiquitylated EGFR” value in the test with EGFR [3] is given as “abolished”. For the same molecule, the “LZTR1-mediated destabilization of AXL” value in the test on AXL [4] is given as “rescued”. For the same molecule, in the test on RIT1, the “RIT1 reduction by LZTR1” value is “rescued”. Turning to `CN(C)C/C=C/C(=O)Nc1cc2c(Nc3ccc(F)c(Cl)c3)ncnc2cc1O[C@H]1CCOC1` [afatinib], the clonogenicity result in test [5] is “ineffective”. As for `CO/C1=C\C(C)=C\[C@@H](C)[C@@H](O)[C@@H](C)C/C(C)=C/C=C/[C@H](OC)[C@@H]([C@@H](C)[C@@H](O)[C@H](C)[C@@]2(O)C[C@@H](O)[C@H](C)[C@@H](C(C)C)O2)OC1=O` [bafilomycin A1], the “LZTR1-mediated destabilization of EGFR” value with EGFR [2] was “relieved”. Besides, the “LZTR1-mediated destabilization of AXL” value with AXL [4] is recorded as “relieved”. `Nc1nc(Nc2ccc3c(c2)CC[C@@H](N2CCCC2)CC3)nn1-c1cc2c(nn1)-c1ccccc1CCC2` [bemcentinib]: in test [6], the “therapeutic effect of single treatment” value is “minimal”. Moreover, in test [5], the clonogenicity entry is “ineffective”. In the case of `CC(C)C[C@H](NC(=O)[C@H](Cc1ccccc1)NC(=O)c1cnccn1)B(O)O` [bortezomib], the “RIT1 reduction by LZTR1” value in the test with RIT1 is listed as “rescued”. As to `CCN(CC)CCCC(C)Nc1ccnc2cc(Cl)ccc12` (stereo not shown) [chloroquine], the “LZTR1-increased polyubiquitylated species of AXL” value in the test on AXL [1] is on record as “accumulated at much higher levels”.

With `C=CC(=O)Nc1cc(Nc2nccc(-c3cn(C)c4ccccc34)n2)c(OC)cc1N(C)CCN(C)C` [osimertinib], in test [5], the clonogenicity result is “ineffective”.

The record behind these values is patent US20250262210A1, “LZTR1 MUTANT TUMORS AND METHODS THEREOF” (The Trustees of Columbia University in the City of New York, priority 2022, published 2025).
